# According to EP0107890B1, “Mammalian PGRF” (THE SALK INSTITUTE FOR BIOLOGICAL STUDIES, priority 1982, dated 1986):
# Where no end group is shown, it is not given here.
# Key:
# pituitary cells = assay: in vitro growth hormone release assay in rat pituitary cell cultures (immunoreactive GH by radioimmunoassay); assay type: cell-based
# Experimental: To determine the effectiveness of the peptides to promote the release of growth hormone, in vitro assays are carried out using synthetic PGRF(1-40) of Example II in side-by-side comparison with equimolar concentrations of the extracted and purified native PGRF (1-40) and of a GRF Reference Standard having a known effectiveness to promote the release of growth hormone from pituitary cells. The GRF Reference standard is described and defined in Brazeau, et al., Endocrinology, Vol. 110, A538(1982) and is an amount of a preparation of rat hypothalamic origin that produces a half-maximal response in terms of GH release in a pituitary cell monolayer bioassay. Cultures are used which include cells of rat pituitary glands removed some four to five days previously. Both cultures of a defined standard medium and cultures which are considered optimal for the secretion of growth hormone are used for the comparative testing, in the general manner described in Brazeau, et al. Regulatory Peptides, 1, 255, 1981. Incubation with the substance to be tested is carried out for 3 to 4 hours, and aliquots of the culture medium are removed and processed to measure their contents in immunoreactive GH(ir GH) by a well-characterized radioimmunoassay.
# normal male rats = assay: in vivo secretion of pituitary growth hormone after injection into anesthetized rats; details: injected into rats
# Text: In addition to the in vitro tests for secretion of growth hormone, in vivo experiments were also run by injecting the synthetic peptide into normal male rats about 200 g. body weight, anesthetized with pentobarbital.
substance,measurement,setting,value
"PGRF(1-40) (YADAIFTNSYRKVLGQLSARKLLQDIMSRQQGESNQERGA-OH; UniProt P01286 32-71, looked up, fragment) [Example II]",ED50,"pituitary cells; GH release from rat pituitary cell cultures, incubation 3 to 4 hours",about 113 picograms
same,biological activity compared with the native peptide,"pituitary cells; in equimolar ratios, versus extracted and purified native PGRF (1-40)",full biological activity of the native peptide
same,GH-releasing activity in vivo,normal male rats,powerful stimulator of the secretion of pituitary growth hormone
